Experimental data: US8765953B2, “Compounds and methods for the treatment of pain and other diseases” (Aquilus Pharmaceuticals, Inc., priority 2008, dated 2014)
pKi: −log10 of the molar value. Each block holds one compound with its values, some of them ahead of it.

Experiments:
[1] = test system: spinal nerve ligation (SNL) mouse model; experiment: Intraperitoneal (i.p.) SNL-mouse model of neuropathic pain, von Frey mechanical allodynia; assay type: in vivo
Description: (§1) To measure the neuropathic pain inhibiting affects of the MMP inhibitors of the present invention, the spinal nerve ligation (SNL) mouse model was run on a select number of compounds. This model which began with the work of Bennet and coworkers (Bennet, G. J. et al. Pain, 33, (1988), 87-107) and was optimized by Kim and Chung (Kim, S. H.; Chung, J. M. Pain, 50, (1992), 355-363) entails first, under magnification, the removal of one-third of the transverse process and then identifying and then dissecting free the L5 spinal nerve from the adjacent L4 spinal nerve in the mouse. The L5 spinal nerve is then tightly ligated using 6.0 silk suture. The nerve injury leads to hyperalgesia which manifests itself by enhanced responses to mechanical, heat and/or cooling stimuli. In this case, mechanical hyperalgesia is tested via Von Frey monofilaments in which filaments of varying thicknesses and bending force are individually applied to the plantar surface of the foot of the mouse. The threshold force necessary for paw withdrawal decreases dramatically after the nerve surgery. Potent pain inhibitors will reverse this affect resulting in greater force needing to be applied to cause the rodent paw to withdrawal.
Tactile Allodynia Test. Mechanical allodynia was measured using the calibrated von Frey filaments (Semmes-Weinstein monofilaments; Stoelting, Wood Dale, Ill., U.S.A.). The plantar surface of the left injured paw of each animal was tested as described by Chaplan et al. (Journal of Neuroscience Methods, 53, (1994), 55-63). The Fifty percent paw withdrawal threshold response was determined by sequentially increasing or decreasing the stimulus strength according to the “up-down method” of Dixon (Annual Review Pharmacology Toxicology, 20, (1980), 441-462). For mice, […] von Frey filaments were used, with approximately equal logarithmic incremental bending forces (von Frey number: 1.65, 2.36, 2.44, 2.83, 3.22, 3.61, 3.84, 4.08, and 4.17; equivalent to 0.005, 0.02, 0.03, 0.07, 0.17, 0.41, 0.69, 1.20, and 1.48 g force, respectively).
Prior to testing, each animal was placed in a suspended clear plastic chamber with a wire mesh bottom and acclimated for 15 minutes. Testing was initiated with the 0.07 g (handle marking of 2.83) applied perpendicularly to the plantar surface of the affected hind paw; each filament was applied with enough pressure to cause a buckle effect. The absence of a paw lifting/withdrawal response after 6 s prompted the use of the next higher weight filament. Paw withdrawal, indicating a positive response, prompted the use of a weaker filament. After the initial positive response (i.e., paw withdrawal), the testing continued for four additional measurements, and was used to calculate the response threshold. Four consecutive positive responses received a score of 0.001 g, and five consecutive negative responses (i.e., no paw withdrawal) received a score of 1.5 g.
Analyses for Tactile Allodynia Testing. The 50% paw withdrawal threshold was calculated (PWT; Luo and Calcutt, J. Pharmacology Experimental Therapeutics, 303(3), (2002), 1199-1205; Chaplan et al. Journal of Neuroscience Methods, 53, (1994), 55-63) using the formula: 10(Xf+κδ)/10,000 where Xf is the final von Frey filament used (log units), κ is a value that analyzes the response pattern (taken from the table published by Chaplan et al., 1994), and δ is the mean difference between stimuli (log units).
Except for the mode of administration, number of mice/group and the number of injections and amount of compound per injection, the rest of the study was done in the same manner (in regards to the surgeries and tactile allodynia testing and analysis) as Experiment 110. 3.2 mg of each of the MMP inhibitors #5 and #118 were dissolved in 320 microliters of DMSO. To the solution was then added 32 microliters of Tween 80, followed by 2850 microliters of phosphate buffered saline (PBS). This gave a final concentration of 10% DMSO, 1% Tween and 1 mg/ml compound. […]

[2] = test system: spinal nerve ligation (SNL) mouse model; experiment: Intrathecal (i.t.) SNL-mouse model of neuropathic pain, von Frey mechanical allodynia; assay type: in vivo, FVB male mice
Description: as §1
Following preoperative baseline (Day −2) paw threshold measurement, FVB male mice were subjected to SNL injury (Day −1). The next day (Day 0) after SNL surgery, the animals were tested for post-operative baseline threshold measurements for mechanical allodynia; and the animals were then randomly assigned to one of 3 treatment groups (see Table 9). Over the course of the study, paw withdrawal threshold of these animals was measured in response to mechanical stimulation using the von Frey Monofilament Test.
To avoid systemic effects of the MMP inhibitors, the MMP inhibitors of the present invention were delivered into the cerebral spinal fluid (CSF) space around lumbosacral spinal cord via intrathecal (i.t.) administration, with the idea of targeting MMPs in the DRG, spinal cord, and spinal CSF. Intrathecal MMP inhibitor administration could then target not only spinal cord cells but also DRG cells. Each intrathecal (i.t.) injection was carried out according to the technique of Hylden and Wilcox (Hylden J L, Wilcox G L. Eur. J. Pharmacol., 67, (1980), 313-6) 5.2 mg of each of the MMP inhibitors were first dissolved in 140 microliters of DMSO and then put into 1260 microliters of 0.5% hydroxypropyl cellulose (HPC) in water to make a fine suspension composed of compound in 10% DMSO-0.5% hydroxypropyl cellulose. 10 microliters of the mixture was injected into the intrathecal space of male FVB mice (weighing 22-25 grams each and obtained from the Jackson Laboratories, Bar Harbor, Me.), by lumbar puncture in a volume of 10 μl/mouse using a Hamilton microsyringe via a 30 gauge needle inserted between lumbar vertebrae 5 and 6. In brief, each animal was held firmly by the pelvic girdle in one hand, while the needle was inserted into the tissue on the right side of the L5 or L6 spinous process. The needle was moved forward and slipped into the groove between the spinous process and transverse process and gently moved forward to the intervertebral space at ˜10° angle. As the needle was inserted (˜0.5 cm) within the vertebral column a tail flick was evident, and the solution was then injected.
Tactile Allodynia Test. Mechanical allodynia was measured using the calibrated von Frey filaments (Semmes-Weinstein monofilaments; Stoelting, Wood Dale, Ill., U.S.A.). The plantar surface of the left injured paw of each animal was tested as described by Chaplan et al. (Journal of Neuroscience Methods, 53, (1994), 55-63). The Fifty percent paw withdrawal threshold response was determined by sequentially increasing or decreasing the stimulus strength according to the “up-down method” of Dixon (Annual Review Pharmacology Toxicology, 20, (1980), 441-462). […]

[3] = In-vitro mouse microsomal stability; assay type: in vitro ADME; conditions: mouse microsomes, 1 microMolar compound, at T = 60 minutes
Protocol: Human and mouse microsomal stability was determined for select compounds following the method of Houston (Houston, J. B; Biochem. Pharmacol. 47, (1994),1469).
1 μM concentration of compound and separate human and mouse microsomes (0.3 mg/mL, BD bioscience) were used in the in-vitro assay. To ensure proper energy supply for microsomal degradation of compound, an energy regenerating system comprised of 100 mM potassium phosphate, 2 mM NADPH, 3 mM MgCl2, pH=7.4. and the microsomal protein is added to each sample and the resulting suspension is then incubated in duplicate for 60 min at 37° C. in a rotary shaker. A control is run for each test agent in duplicate omitting NADPH to detect NADPH-free degradation. At T=0 and T=60 min., an aliquot is removed from each experimental and control reaction and then mixed with an equal volume of ice-cold Stop Solution (consisting of 0.3% acetic acid in acetonitrile containing haloperidol and diclofenac as internal standards). Stopped reactions are then incubated for at least ten minutes at −20° C., and an additional volume of water is then added. The samples are then centrifuged to remove precipitated protein, and the supernatants are then analyzed by LC-MS/MS to determine the percentage of compound remaining. The LC-MS/MS system used was an Agilent 6410 mass spectrometer coupled with an Agilent 1200 HPLC and a CTC PAL chilled autosampler, all controlled by MassHunter software (Agilent), or an ABI2000 mass spectrometer coupled with an Agilent 1100 HPLC and a CTC PAL chilled autosampler, all controlled by Analyst software (ABI). After separation on a C18 reverse phase HPLC column (Agilent, Waters, or equivalent) using an acetonitrile-water gradient system, peaks were analyzed by mass spectrometry (MS) using ESI ionization in MRM mode.

[4] = test system: humans; conditions: humans (S-3304: animals or man); cited from earlier work
[5] = biological target: T1, MMP-7 (Homo sapiens, UniProt P09237); conditions: cited from earlier work
T1 sequence (P09237 95-267): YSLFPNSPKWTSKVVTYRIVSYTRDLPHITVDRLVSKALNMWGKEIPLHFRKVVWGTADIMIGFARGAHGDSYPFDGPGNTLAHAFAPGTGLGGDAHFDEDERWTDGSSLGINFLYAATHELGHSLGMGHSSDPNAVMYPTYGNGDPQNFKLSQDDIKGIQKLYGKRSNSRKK

[6] = biological target: MMP-9 (Homo sapiens, UniProt P14780); conditions: cited from earlier work
[7] = biological target: MMP-13 (Homo sapiens, UniProt P45452); conditions: cited from earlier work
[8] = biological target: MMP-8 (Homo sapiens, UniProt P22894); conditions: cited from earlier work
[9] = biological target: T2, MMP-2 (Homo sapiens, UniProt P08253); conditions: cited from earlier work
T2 sequence (P08253 110-660): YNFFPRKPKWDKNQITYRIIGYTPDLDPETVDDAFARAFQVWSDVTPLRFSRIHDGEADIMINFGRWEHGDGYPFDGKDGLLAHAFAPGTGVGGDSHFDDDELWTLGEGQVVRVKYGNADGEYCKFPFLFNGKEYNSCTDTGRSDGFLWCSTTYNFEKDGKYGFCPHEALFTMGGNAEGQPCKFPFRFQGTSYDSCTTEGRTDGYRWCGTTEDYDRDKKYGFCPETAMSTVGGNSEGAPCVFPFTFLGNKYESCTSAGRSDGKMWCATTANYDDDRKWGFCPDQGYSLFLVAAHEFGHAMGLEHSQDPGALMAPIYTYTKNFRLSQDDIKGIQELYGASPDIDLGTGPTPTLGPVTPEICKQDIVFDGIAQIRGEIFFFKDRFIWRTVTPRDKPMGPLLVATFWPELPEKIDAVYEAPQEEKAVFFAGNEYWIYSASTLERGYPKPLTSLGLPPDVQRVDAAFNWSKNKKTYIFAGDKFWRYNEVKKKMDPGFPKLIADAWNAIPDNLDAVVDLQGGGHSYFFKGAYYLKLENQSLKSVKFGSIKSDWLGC

[10] = test system: rat formalin test; conditions: cited from earlier work
[11] = biological target: MMP-12 (Homo sapiens, UniProt P39900); conditions: cited from earlier work
[12] = biological target: MMP-3 (Homo sapiens, UniProt P08254); conditions: cited from earlier work
[13] = test system: L5 spinal nerve ligation (SNL) neuropathic pain model; conditions: in vivo; cited from earlier work
[14] = test system: mechanical nociception; conditions: in vivo; cited from earlier work
[15] = i.p. 100 μl/mouse daily (approx. 3.3 mg/Kg), day 1-5

Chain of MMP-9 (P14780 94-707, species assumed): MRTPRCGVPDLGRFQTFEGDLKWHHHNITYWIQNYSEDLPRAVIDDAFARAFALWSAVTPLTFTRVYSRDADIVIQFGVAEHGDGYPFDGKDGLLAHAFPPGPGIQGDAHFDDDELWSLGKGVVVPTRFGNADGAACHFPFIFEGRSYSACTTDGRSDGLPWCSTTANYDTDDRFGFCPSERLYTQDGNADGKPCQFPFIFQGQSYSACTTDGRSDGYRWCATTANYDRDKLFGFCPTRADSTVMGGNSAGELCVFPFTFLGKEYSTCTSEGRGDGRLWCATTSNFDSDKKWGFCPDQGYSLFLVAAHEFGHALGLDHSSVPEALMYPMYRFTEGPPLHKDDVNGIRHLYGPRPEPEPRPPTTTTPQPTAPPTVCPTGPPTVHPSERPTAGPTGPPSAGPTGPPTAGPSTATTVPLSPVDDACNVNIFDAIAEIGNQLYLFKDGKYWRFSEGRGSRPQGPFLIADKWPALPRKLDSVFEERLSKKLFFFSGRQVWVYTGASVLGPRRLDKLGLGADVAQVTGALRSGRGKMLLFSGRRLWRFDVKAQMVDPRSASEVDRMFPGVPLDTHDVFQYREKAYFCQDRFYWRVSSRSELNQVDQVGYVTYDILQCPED
Chain of MMP-8 (P22894 101-467, species assumed): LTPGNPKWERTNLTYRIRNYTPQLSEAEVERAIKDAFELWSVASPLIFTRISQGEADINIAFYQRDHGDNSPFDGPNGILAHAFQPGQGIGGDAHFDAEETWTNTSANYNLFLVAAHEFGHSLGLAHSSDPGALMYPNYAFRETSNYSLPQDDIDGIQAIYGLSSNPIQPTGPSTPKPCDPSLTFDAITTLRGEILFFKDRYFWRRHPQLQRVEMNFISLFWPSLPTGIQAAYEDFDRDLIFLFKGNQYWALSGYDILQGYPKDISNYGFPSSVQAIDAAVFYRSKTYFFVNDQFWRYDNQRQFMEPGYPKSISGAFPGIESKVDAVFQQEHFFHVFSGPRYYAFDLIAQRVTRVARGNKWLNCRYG
Chain of MMP-12 (P39900 106-470, species assumed): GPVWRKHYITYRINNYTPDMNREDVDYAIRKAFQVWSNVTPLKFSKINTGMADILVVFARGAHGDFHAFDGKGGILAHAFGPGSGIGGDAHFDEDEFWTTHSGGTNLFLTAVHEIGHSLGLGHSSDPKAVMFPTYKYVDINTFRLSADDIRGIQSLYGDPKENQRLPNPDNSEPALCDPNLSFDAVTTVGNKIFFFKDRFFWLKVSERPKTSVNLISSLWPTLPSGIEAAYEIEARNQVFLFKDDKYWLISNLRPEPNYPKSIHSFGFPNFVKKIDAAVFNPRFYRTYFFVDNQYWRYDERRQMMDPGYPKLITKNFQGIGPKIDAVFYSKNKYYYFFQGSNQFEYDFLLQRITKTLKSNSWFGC
Chain of MMP-3 (P08254 100-477, species assumed): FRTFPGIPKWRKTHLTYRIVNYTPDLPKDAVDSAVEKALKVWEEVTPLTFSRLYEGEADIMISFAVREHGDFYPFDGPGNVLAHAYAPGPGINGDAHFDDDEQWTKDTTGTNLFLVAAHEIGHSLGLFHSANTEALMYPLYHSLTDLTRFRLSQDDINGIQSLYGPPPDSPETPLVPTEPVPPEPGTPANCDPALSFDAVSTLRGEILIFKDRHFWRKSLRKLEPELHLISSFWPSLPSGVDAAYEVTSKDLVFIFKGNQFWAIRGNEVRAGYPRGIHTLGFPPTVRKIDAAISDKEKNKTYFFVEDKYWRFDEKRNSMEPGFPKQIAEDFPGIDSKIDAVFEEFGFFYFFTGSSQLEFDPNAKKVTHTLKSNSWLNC

% Mean Remaining Parent with NADPH (%) ([3]; with NADPH): 85%
% Mean Remaining Parent without NADPH (%) ([3]; without NADPH (control)): 91%
Compound: [2H]C([2H])([2H])c1ccc(C#Cc2ccc(S(=O)(=O)N[C@H](Cc3c[nH]c4ccccc34)C(=O)O)s2)cc1 [Compound 118, (R)-3-(1H-Indol-3-yl)-2-[5-(4-trideuteromethyl-phenylethynyl)-thiophene-2-sulfonylamino]-propionic acid-(D3, 98%)]
Paw withdrawal threshold, mean, Day 1 [1, 15]: 0.170 grams
Paw withdrawal threshold, mean, Day 2 [1, 15]: 0.350 grams
Paw withdrawal threshold, mean, Day 5 [1, 15]: 1.470 grams
Paw withdrawal threshold, mean, Day 6 [1, 15]: 0.867 grams
Paw withdrawal threshold, mean, Day 7 [1, 15]: 0.250 grams
Reversal of mechanical allodynia ([1]; i.p. administration, by day 5): complete reversal of mechanical alodynia
Paw withdrawal threshold, mean, Day 0 Postoperative Baseline ([1]; i.p. study, baseline before treatment): 0.096 grams
Paw withdrawal threshold, mean, Day 5 ([2]; i.t. 10 μl/mouse daily day 1-6): 0.320 grams
Paw withdrawal threshold, mean, Day 7 ([2]; i.t. 10 μl/mouse daily day 1-6): 1.024 grams
Paw withdrawal threshold, mean, Day 1 ([2]; i.t. 10 μl/mouse daily day 1-6, testing 2 hr after first i.t. injection): 0.321 grams
Reversal of allodynia ([2]; i.t. administration, as compared to vehicle and compound #5): almost complete reversal of allodynia
Paw withdrawal threshold, mean, Day 0 Postoperative Baseline ([2]; i.t. study, post operative injury baseline, before treatment): 0.077 grams
Paw withdrawal threshold, mean, Day(-2) Pre-operative Baseline ([2]; i.t. study, testing prior to SNL injury, before treatment): 1.268 grams

Compound: CNC(=O)[C@@H](NC(=O)[C@H](CC(C)C)[C@H](O)C(=O)NO)C(C)(C)C [Marimastat]
Musculoskeletal toxicities [4]: time-dependent and dose-dependent musculoskeletal toxicities (arthralgia, myalgia, tendinitis)

Compound: CCOCOC[C@H](C[C@H](C)C(=O)NO)NC(=O)c1ccc(Oc2ccccc2)cc1 [ONO-4817]
pKi [5]: 5.60
pKi [6]: 8.68
pKi [7]: 8.96
pKi [8]: 8.96
pKi [9]: 9.14
Effect on the analgesic effect of intrathecal MMP-2 (Phase I agitation behavior) ([10]; MMP-2 injected intrathecally): antagonized
Effect on the rat formalin test when given alone ([10]; inhibitor given alone): no affect
pKi [11]: 9.35
pKi [12]: 7.38

Compound: TIMP-1: endogenous matrix metalloproteinase inhibitor
Effect on neuropathic pain in the SNL model [13]: suppressed neuropathic pain

Compound: CNC(=O)[C@H](Cc1c[nH]c2ccccc12)NC(=O)[C@@H](CC(=O)NO)CC(C)C [GM6001]
Effect on mechanical nociception [14]: attenuate mechanical nociception
